Results taken from patent US20260200849A1, “CATIONIC LIPIDS AND PREPARATION METHOD THEREOF” (RiboX Therapeutics HK Limited, priority 2024, published 2026).

How the values were obtained:
[1] = LNP size and polydispersity index (PDI) by dynamic light scattering (Zetasizer); assay type: physicochemical; conditions: for Size (nm): Formulation No. 001 (Ionizable lipid:DSPC:cholesterol:DMG-PEG2000 = 50:10:38.5:1.5, N/P 6), RNA No. 331; for PDI: Formulation No. 001, RNA No. 331
Experimental: (§1) The LNP size and polydispersity index (PDI), determined by dynamic light scattering (DLS), and zeta potential were measured by a Zetasizer machine (Malvern). RNA concentration and encapsulation efficacy (EE %) were analyzed by the Quant-IT Ribogreen kit by calculating the percentage encapsulation at 100%—(RNA-LNPs/RNA-LNPs with Triton X-100).

[2] = RNA encapsulation efficacy (EE %) by Quant-IT Ribogreen kit; assay type: physicochemical; conditions: LNP, Formulation No. 001, RNA No. 331
Experimental: as §1

Hep G2 cells [3] = test: In vitro expression: luciferase activity in Hep G2 cells transfected with RNA-LNPs; assay type: cell-based; conditions: Formulation No. 001, RNA No. 331 (firefly-luciferase), 100 ng/mL RNA-LNPs, 72 hours post transfection
Experimental: 2E5 Hep G2 cells were transfected with 100 ng/mL of RNA-LNPs encoding for firefly-luciferase. At 72 hours post transfection, the cells were washed and lysed. The luciferase expression (2-well repeat) was determined in the cell lysates with the luciferase assay reagent kit (Promega), according to the kit protocol, luciferase activity was measured by a luminometer.

Hep G2 cells [4] = test: In vitro toxicity: Hep G2 cell viability by CellTiter-Glo; assay type: cell-based; conditions: Formulation No. 001, RNA No. 331, 1 μg/mL RNA-LNPs, 72 hours post transfection, cell only = 100%
Experimental: 2E5 Hep G2 cells were transfected with 1 μg/mL RNA-LNPs. At 72 hours post transfection, cell viability (2-well repeat) was determined with the CellTiter-Glo® reagent kit, according to the kit protocol, measured by a luminometer. Cell only as control (100%).
The cell viability was calculated according to the following formula: […]

Balb/c mice = test: In vivo expression by IV, 0.05 mg/kg luciferase RNA-LNPs, IVIS luminescence; conditions: Formulation No. 001, RNA No. 331; female Balb/c mice, 0.05 mg*kg−1 intravenous, 24-hours post injection
Experimental: (§2) 7-8 week old, female Balb/c mice (N=3) were injected with 0.05 mg*kg−1 of RNA-LNPs encoding for firefly-luciferase by intravenous injection. At 24- and 72-hours post injection, animals were intraperitoneally injected with 15 mg/mi of Luciferin substrate and whole-body luminescence was determined by a bioluminescent in vivo imaging system (IVIS).
as §2, with “24-hours” for “24- and 72-hours”, “mg/ml” for “mg/mi”, “whole-body/liver/spleen” for “whole-body”

MCP-1 = test: In vivo tolerability by IV: serum MCP-1 by Luminex; parameters: species or system C57BL/6J mice; conditions: Formulation No. 001, RNA No. 331, male C57BL/6J mice, 1.0 mg*kg/1 intravenous; for MCP-1 at 2 h: 2 hours post injection; for MCP-1 at 24 h: 24 hours post injection
Experimental: (§3) 6-8 week old, male C57BL/6J mice (N=3) were injected with 1.0 mg*kg/1 of RNA-LNPs encoding for firefly-luciferase by intravenous injection. At 2- and 24-hours post injection, about 40 μL blood was harvested and immediately added to the procoagulant containing tube. Stand for 30 min at room temperature and then centrifuged at 2500 g×10 min to obtain serum. About 15 μL serum samples were aliquoted for cytokine (MCP-1 and IL-6) detection by Luminex (ProcartaPlex Mouse 2-plex, Thermo). PBS group as negative control.
as §3, with “mg*kg−1” for “mg*kg/1”

IL-6 = test: In vivo tolerability by IV: serum IL-6 by Luminex; parameters: species or system C57BL/6J mice; conditions: Formulation No. 001, RNA No. 331, male C57BL/6J mice, 1.0 mg*kg/1 intravenous; for IL-6 at 2 h: 2 hours post injection; for IL-6 at 24 h: 24 hours post injection
Experimental: as §3
as §3, with “mg*kg−1” for “mg*kg/1”

C57BL/6J mice = test: In vivo expression by IV, 1.0 mg/kg luciferase RNA-LNPs, whole-body and organ IVIS luminescence; conditions: Formulation No. 001, RNA No. 331; male C57BL/6J mice, 1.0 mg*kg−1 intravenous, 24-hours post injection
Experimental: (§4) 6-8 week old, male C57BL/6J mice (N=3) were injected with 1.0 mg*kg−1 of RNA-LNPs encoding for firefly-luciferase by intravenous injection. At 24-hours post injection, animals were intraperitoneally injected with 15 mg/ml of Luciferin substrate and whole-body/liver/spleen/kidney/small intestine/large intestine luminescence were determined by a bioluminescent in vivo imaging system (IVIS).
as §4, with “mg/nil” for “mg/ml”

SMILES	Size (nm) [1]	PDI [1]	EE (%) [2]	In vitro Expression (Mean) (Hep G2 cells [3])	In vitro cell viability (%) (Mean) (Hep G2 cells [4])	Liver (p/s) (Mean) (Balb/c mice)	Spleen (p/s) (Mean) (Balb/c mice)	Whole body (p/s) (Mean) (Balb/c mice)	MCP-1 at 2 h (MCP-1)	MCP-1 at 24 h (MCP-1)	IL-6 at 2 h (IL-6)	IL-6 at 24 h (IL-6)	Kidney (p/s) (C57BL/6J mice)	Large intestine (p/s) (C57BL/6J mice)	Liver (p/s) (C57BL/6J mice)	Small intestine (p/s) (C57BL/6J mice)	Spleen (p/s) (C57BL/6J mice)	Whole body (p/s) (C57BL/6J mice)
CCCCC/C=C\CCOC(=O)CCCCCOC(=O)C(COC(=O)NCCN1CCCCC1)NC(=O)OCCCCCCCCOC(=O)C(CCCCCC)CCCCCCCC (stereo not drawn) [Lipid 954]	83.18 nm	0.01	88.46%	4.78E+05	93.41%	8.01E+08 p/s	9.82E+07 p/s	2.71E+09 p/s	4780 pg/mL	789 pg/mL	4220 pg/mL	8.87 pg/mL	1.53E+08 p/s	9.03E+08 p/s	3.01E+09 p/s	1.69E+09 p/s	7.74E+08 p/s	1.08E+10 p/s
CCCCCCCCCCCOC(=O)NC(COC(=O)NCCN1CCCCC1)C(=O)OCCCCCCCC(=O)OC(CCCCCCCC)CCCCCCCC (stereo not drawn) [Lipid 914]	70.33 nm	0.04	87.49%	1.56E+06	79.98%	3.77E+08 p/s	5.60E+07 p/s	1.19E+09 p/s	452 pg/mL	148 pg/mL	4.6 pg/mL	2.77 pg/mL	1.72E+07 p/s	4.60E+07 p/s	1.75E+09 p/s	4.42E+08 p/s	2.11E+08 p/s	2.46E+09 p/s
CCCCC/C=C\C/C=C\CCCCCCCCOC(=O)NC(COC(=O)NCCN1CCCCCC1)C(=O)OCCCCCCCC(=O)OC(CCCCCCCC)CCCCCCCC (stereo not drawn) [Lipid 858]	63.50 nm	0.04	91.60%	2.88E+05	92.44%	3.71E+08 p/s	6.61E+07 p/s	8.74E+08 p/s	1360 pg/mL	111 pg/mL	23 pg/mL	3.13 pg/mL	2.31E+07 p/s	1.58E+08 p/s	8.64E+08 p/s	6.45E+08 p/s	2.33E+08 p/s	1.92E+09 p/s
CCCCC/C=C\C/C=C\CCCCCCCCOC(=O)C(COC(=O)NCCN1CCCCCC1)NC(=O)OCCCCCCCCOC(=O)C(CCCCCC)CCCCCCCC (stereo not drawn) [Lipid 919]	66.17 nm	0.02	96.20%	4.10E+05	82.59%	5.47E+08 p/s	2.28E+08 p/s	1.86E+09 p/s	1290 pg/mL	256 pg/mL	25.8 pg/mL	5.07 pg/mL	1.88E+07 p/s	1.29E+08 p/s	3.54E+09 p/s	6.16E+08 p/s	6.74E+08 p/s	6.01E+09 p/s
CCCCCCCC/C=C\CCCCCCCC(=O)NC(COC(=O)NCCN1CCCCC1)C(=O)OCCCCCCCC(=O)OC(CCCCCCCC)CCCCCCCC (stereo not drawn) [Lipid 736]	66.29 nm	0.01	91.61%	7.05E+05	73.49%	2.87E+08 p/s	1.39E+08 p/s	2.08E+09 p/s	3830 pg/mL	260 pg/mL	442 pg/mL	3.03 pg/mL	5.22E+07 p/s	1.78E+08 p/s	2.87E+09 p/s	6.48E+08 p/s	3.38E+08 p/s	5.28E+09 p/s

Continued, in another order:

Size (nm) [1]	PDI [1]	EE (%) [2]	SMILES	In vitro Expression (Mean) (Hep G2 cells [3])	In vitro cell viability (%) (Mean) (Hep G2 cells [4])	Liver (p/s) (Mean) (Balb/c mice)	Spleen (p/s) (Mean) (Balb/c mice)	Whole body (p/s) (Mean) (Balb/c mice)	MCP-1 at 2 h (MCP-1)	MCP-1 at 24 h (MCP-1)	IL-6 at 2 h (IL-6)	IL-6 at 24 h (IL-6)	Kidney (p/s) (C57BL/6J mice)	Large intestine (p/s) (C57BL/6J mice)	Liver (p/s) (C57BL/6J mice)	Small intestine (p/s) (C57BL/6J mice)	Spleen (p/s) (C57BL/6J mice)	Whole body (p/s) (C57BL/6J mice)
69.88 nm	0.05	96.96%	CCCCCCCCC(CCCCCC)C(=O)OCCCCCCCCOC(=O)NC(COC(=O)NCCN(C)C)C(=O)OCCCCCCCCOC(=O)C(CCCCCC)CCCCCCCC (stereo not drawn) [Lipid 883]	2.82E+05	93.23%	1.59E+08 p/s	2.09E+07 p/s	1.60E+09 p/s	1860 pg/mL	220 pg/mL	16.4 pg/mL	5.01 pg/mL	6.37E+06 p/s	3.50E+07 p/s	3.22E+09 p/s	1.46E+08 p/s	2.19E+08 p/s	1.65E+09 p/s
75.43 nm	0.01	87.36%	CCCCCCCCC(CCCCCC)C(=O)OCCCCCCCCOC(=O)NC(COC(=O)NCCN1CCCCC1)C(=O)OCCCCCCCCCCC(=O)OCCCCCC (stereo not drawn) [Lipid 928]	4.72E+05	95.03%	2.35E+08 p/s	4.80E+07 p/s	9.65E+08 p/s	574 pg/mL	74.9 pg/mL	11.9 pg/mL	30.5 pg/mL	8.93E+06 p/s	2.23E+07 p/s	2.41E+09 p/s	1.61E+08 p/s	3.25E+08 p/s	2.17E+09 p/s
61.64 nm	0.02	95.41%	CCCCCCCCC(CCCCCC)C(=O)OCCCCCCCCOC(=O)NC(COC(=O)NCCN1CCCCCC1)C(=O)OCCCCCCCCOC(=O)C(CCCCCC)CCCCCCCC (stereo not drawn) [Lipid 889]	2.46E+05	91.21%	1.70E+08 p/s	8.56E+07 p/s	1.04E+09 p/s	760 pg/mL	286 pg/mL	7.62 pg/mL	4.69 pg/mL	3.47E+07 p/s	2.12E+08 p/s	5.79E+09 p/s	1.04E+09 p/s	2.95E+08 p/s	3.48E+09 p/s
